According to US20140275094A1, “METHOD FOR TREATING PULMONARY ARTERIAL HYPERTENSION IN A PATIENT NOT HAVING IDIOPATHIC PULMONARY FIBROSIS” (GILEAD SCIENCES, INC., priority 2012, published 2014):

Assays:
[1] = molecular target: T1, human bile salt export pump (BSEP) (Homo sapiens, UniProt O95342); experiment: Inhibition of hepatic transporter BSEP, Sf9 cell membrane vesicles; assay type: biochemical
T1 construct: expressed in transfected cells; host or cells: Sf9 cell membrane vesicles
Protocol: (§1) Inhibition constants (IC50) were measured for human bile salt export pump (BSEP), sodium taurocholate cotransporting polypeptide (NTCP), multidrug resistance protein 2 (MRP2), P-glycoprotein (Pgp), breast cancer resistance protein (BCRP), organic anion-transporting polypeptide 1B1 (OATP1B1), and OATP1B3 in transfected cell-lines. Known inhibitors were used as positive controls.

[2] = molecular target: T2, sodium taurocholate cotransporting polypeptide (NTCP) (Homo sapiens, UniProt Q14973); experiment: Inhibition of hepatic transporter NTCP, transfected CHO cells; assay type: cell-based
T2 construct: expressed in transfected cells; host or cells: Chinese Hamster Ovary (CHO)
T2 sequence (Q14973 1-349): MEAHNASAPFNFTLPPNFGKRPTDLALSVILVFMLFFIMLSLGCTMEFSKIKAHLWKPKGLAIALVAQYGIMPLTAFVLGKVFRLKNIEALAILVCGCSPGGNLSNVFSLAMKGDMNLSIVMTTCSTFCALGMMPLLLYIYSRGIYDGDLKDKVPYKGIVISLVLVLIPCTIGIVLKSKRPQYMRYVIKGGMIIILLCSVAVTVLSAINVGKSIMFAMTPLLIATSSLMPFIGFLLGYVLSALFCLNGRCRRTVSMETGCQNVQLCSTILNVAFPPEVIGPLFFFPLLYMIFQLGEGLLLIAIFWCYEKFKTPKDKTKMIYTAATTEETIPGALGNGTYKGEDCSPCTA
Protocol: as §1

P-glycoprotein (Pgp) = molecular target: T3, P-glycoprotein (Pgp) (Homo sapiens, UniProt P08183); experiment: Inhibition of Pgp, transfected MDCKII cells; assay type: cell-based
T3 construct: expressed in transfected cells; host or cells: Madin-Darby canine kidney strain II (MDCKII)
Protocol: as §1

[3] = molecular target: T4, breast cancer resistance protein (BCRP) (Homo sapiens, UniProt Q9UNQ0); experiment: Inhibition of BCRP, transfected MDCKII cells; assay type: cell-based
T4 construct: expressed in transfected cells; host or cells: MDCKII
T4 sequence (Q9UNQ0 1-655): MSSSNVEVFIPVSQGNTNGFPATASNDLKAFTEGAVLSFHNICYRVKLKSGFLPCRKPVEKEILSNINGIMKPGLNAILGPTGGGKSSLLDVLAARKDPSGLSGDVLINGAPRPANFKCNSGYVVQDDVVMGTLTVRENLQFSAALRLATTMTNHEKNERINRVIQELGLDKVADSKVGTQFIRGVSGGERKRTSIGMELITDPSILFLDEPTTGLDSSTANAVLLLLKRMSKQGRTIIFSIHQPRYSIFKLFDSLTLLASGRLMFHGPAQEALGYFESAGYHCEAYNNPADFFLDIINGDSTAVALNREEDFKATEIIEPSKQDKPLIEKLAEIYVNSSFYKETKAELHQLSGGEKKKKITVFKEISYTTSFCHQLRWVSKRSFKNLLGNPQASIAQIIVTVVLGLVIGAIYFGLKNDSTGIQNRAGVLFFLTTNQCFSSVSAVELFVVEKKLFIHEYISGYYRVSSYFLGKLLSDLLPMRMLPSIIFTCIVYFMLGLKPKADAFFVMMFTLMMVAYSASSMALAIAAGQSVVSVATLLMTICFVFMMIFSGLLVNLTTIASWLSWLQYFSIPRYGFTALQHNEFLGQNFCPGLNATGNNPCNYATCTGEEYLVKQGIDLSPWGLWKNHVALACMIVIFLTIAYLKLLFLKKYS
Protocol: as §1

[4] = molecular target: T5, organic anion-transporting polypeptide 1B1 (OATP1B1) (Homo sapiens, UniProt Q9Y6L6); experiment: Inhibition of OATP1B1, transfected CHO cells; assay type: cell-based
T5 construct: expressed in transfected cells; host or cells: CHO
T5 sequence (Q9Y6L6 1-691): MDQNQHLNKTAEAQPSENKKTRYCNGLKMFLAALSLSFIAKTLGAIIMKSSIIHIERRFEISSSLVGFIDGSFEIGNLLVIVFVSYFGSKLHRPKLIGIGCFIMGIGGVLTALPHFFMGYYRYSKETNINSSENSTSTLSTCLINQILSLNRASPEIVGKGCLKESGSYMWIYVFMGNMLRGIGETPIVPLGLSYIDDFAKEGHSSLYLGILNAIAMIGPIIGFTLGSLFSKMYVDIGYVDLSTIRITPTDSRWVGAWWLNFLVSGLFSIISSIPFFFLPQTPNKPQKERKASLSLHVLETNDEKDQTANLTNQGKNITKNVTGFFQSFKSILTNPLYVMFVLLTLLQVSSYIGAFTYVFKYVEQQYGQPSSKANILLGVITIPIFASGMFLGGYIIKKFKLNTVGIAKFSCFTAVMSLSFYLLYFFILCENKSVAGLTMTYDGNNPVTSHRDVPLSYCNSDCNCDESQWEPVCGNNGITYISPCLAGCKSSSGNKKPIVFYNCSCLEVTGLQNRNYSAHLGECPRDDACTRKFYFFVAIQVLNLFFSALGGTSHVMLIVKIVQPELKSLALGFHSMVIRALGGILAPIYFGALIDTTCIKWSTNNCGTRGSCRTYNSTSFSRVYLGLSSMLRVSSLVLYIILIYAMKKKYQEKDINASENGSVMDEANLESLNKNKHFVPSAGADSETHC
Protocol: as §1

OATP1B3 = molecular target: T6, OATP1B3 (Homo sapiens, UniProt Q9NPD5); experiment: Inhibition of OATP1B3, transfected CHO cells; assay type: cell-based; conditions: OAT1B3
T6 construct: expressed in transfected cells; host or cells: CHO
T6 sequence (Q9NPD5 1-702): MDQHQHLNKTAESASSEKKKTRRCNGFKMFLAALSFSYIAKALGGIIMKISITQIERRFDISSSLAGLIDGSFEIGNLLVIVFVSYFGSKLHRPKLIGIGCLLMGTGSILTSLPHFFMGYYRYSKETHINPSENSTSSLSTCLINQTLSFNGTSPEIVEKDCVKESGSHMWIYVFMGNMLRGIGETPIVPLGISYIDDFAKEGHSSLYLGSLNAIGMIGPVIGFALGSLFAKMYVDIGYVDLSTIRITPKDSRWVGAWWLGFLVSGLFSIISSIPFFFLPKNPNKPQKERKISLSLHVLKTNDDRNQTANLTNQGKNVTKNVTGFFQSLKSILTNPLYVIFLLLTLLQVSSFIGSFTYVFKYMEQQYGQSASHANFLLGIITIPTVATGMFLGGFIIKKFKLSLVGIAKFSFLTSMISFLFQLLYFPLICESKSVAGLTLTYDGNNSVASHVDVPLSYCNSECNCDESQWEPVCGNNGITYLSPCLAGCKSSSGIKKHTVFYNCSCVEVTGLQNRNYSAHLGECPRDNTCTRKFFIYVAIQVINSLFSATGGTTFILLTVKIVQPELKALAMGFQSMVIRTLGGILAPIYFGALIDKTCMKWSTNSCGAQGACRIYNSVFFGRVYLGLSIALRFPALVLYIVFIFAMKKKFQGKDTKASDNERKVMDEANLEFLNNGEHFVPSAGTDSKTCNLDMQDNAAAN
Protocol: as §1

human hepatocytes = conditions: cited from earlier work

T1 sequence (O95342 whole entry): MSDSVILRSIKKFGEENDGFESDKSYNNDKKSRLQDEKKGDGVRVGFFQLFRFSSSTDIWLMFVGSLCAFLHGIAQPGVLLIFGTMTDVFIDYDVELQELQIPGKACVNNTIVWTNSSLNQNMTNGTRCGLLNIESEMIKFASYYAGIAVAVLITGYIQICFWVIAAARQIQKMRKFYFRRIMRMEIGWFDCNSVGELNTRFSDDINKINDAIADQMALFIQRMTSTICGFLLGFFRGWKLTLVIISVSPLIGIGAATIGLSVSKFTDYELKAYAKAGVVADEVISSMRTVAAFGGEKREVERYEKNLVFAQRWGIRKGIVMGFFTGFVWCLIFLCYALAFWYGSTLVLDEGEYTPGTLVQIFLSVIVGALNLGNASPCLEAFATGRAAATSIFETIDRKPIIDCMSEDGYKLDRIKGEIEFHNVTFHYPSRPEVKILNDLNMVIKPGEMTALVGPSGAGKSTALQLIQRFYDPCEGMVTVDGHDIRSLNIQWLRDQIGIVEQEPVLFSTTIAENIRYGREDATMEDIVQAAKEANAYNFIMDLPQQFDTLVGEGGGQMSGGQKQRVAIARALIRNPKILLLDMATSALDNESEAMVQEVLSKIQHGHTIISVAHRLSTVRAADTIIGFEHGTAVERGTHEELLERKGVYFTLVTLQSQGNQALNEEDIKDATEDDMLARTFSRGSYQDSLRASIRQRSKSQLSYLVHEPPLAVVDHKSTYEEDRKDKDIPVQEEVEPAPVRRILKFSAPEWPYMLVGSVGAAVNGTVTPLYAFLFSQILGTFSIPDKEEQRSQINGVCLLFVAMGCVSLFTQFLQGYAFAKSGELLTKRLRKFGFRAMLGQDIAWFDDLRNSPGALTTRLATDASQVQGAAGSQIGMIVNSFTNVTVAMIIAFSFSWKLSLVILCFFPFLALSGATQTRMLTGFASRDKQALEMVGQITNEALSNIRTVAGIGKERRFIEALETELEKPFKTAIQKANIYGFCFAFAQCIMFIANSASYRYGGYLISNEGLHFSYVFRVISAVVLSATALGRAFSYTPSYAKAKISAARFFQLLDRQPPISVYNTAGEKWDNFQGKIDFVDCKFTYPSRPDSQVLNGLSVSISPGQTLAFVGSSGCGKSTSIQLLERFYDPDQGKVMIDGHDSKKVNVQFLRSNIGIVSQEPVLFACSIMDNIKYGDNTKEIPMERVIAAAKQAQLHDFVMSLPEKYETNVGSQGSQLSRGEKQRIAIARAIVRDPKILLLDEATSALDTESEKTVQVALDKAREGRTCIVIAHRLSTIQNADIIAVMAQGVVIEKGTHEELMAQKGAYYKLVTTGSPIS
T3 sequence (P08183 whole entry): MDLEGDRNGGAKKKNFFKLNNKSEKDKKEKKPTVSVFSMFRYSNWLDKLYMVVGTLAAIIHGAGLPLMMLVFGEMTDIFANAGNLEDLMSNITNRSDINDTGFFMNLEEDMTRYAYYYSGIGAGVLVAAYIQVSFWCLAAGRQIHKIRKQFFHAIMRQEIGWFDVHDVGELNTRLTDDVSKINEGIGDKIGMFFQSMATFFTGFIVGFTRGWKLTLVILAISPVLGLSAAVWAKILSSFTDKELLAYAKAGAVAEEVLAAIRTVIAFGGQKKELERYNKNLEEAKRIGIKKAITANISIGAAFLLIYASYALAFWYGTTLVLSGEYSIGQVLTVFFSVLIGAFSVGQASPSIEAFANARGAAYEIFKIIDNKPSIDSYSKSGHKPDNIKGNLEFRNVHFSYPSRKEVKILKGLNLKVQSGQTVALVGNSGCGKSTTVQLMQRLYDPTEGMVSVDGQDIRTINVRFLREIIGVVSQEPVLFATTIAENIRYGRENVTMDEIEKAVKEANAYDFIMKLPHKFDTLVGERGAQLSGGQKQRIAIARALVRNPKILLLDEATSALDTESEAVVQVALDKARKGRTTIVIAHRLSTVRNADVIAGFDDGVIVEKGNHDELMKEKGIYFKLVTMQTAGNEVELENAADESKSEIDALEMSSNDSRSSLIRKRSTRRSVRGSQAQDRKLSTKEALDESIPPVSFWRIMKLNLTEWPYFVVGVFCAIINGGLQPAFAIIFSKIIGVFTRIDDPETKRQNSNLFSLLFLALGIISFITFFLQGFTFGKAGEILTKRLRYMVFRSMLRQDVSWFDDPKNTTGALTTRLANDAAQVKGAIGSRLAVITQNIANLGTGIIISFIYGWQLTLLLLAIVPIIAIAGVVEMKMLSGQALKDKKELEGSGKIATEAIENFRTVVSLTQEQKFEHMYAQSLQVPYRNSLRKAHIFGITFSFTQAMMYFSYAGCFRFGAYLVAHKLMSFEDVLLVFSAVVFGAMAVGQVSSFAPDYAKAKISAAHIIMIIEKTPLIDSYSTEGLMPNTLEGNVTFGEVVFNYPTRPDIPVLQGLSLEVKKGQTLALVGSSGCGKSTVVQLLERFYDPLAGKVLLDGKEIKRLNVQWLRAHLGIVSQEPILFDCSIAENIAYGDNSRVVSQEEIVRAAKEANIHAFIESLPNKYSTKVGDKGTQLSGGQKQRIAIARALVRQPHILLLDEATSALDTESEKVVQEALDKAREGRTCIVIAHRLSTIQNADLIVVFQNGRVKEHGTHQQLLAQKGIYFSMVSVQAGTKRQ

Question: With `CCCNS(=O)(=O)Nc1ncnc(OCCOc2ncc(Br)cn2)c1-c1ccc(Br)cc1` [Macitentan, N-[5-(4-bromophenyl)-6-(2-(5-bromopyrimidin-2-yloxy)ethoxy)-pyrimidin-4-yl]-N′-propylaminosulfonamide] as the compound, how does the “effect on BSEP” value [1] read?
Answer: Its value is “inhibition was observed”.

Question: What about the IC50 ([1]; BSEP) of the same compound?
Answer: Its IC50 is 12 µM.

Question: And the “effect on NTCP” value [2]?
Answer: Its value is “inhibition was observed”.

Question: And the IC50 ([2]; NTCP)?
Answer: The IC50 was 8 µM.

Question: And the IC50 (P-glycoprotein (Pgp))?
Answer: Its IC50 is 64 ± 15 µM.

Question: What about the IC50 [3] of the same compound?
Answer: Its IC50 is 75 ± 37 µM.

Question: What about the IC50 [4] of the same compound?
Answer: The IC50 was 2 ± 0.3 µM.

Question: And the IC50 (OATP1B3)?
Answer: Its IC50 is 2.1 ± 0.3 µM.

Question: Which “effect on hepatobiliary transporter activity” value (human hepatocytes) does the source give for `COc1cc(OC)nc(O[C@H](C(=O)O)C(OC)(c2ccccc2)c2ccccc2)n1` [darusentan] here?
Answer: The value was “less potent”.

Question: Which “effect on hepatobiliary transporter activity” value (human hepatocytes) does the source give for `Cc1cc2c(cc1CC(=O)c1sccc1S(=O)(=O)Nc1onc(C)c1Cl)OCO2` [sitaxsentan] here?
Answer: Its value is “decreased transporter activity to the greatest extent”.
